Results from patent publication US8227240B2, “Systems for screening pharmaceutical chemicals” (The Washington University, priority 2001, dated 2012).

What was measured:
Format in all cases: cell-based
[1] = tested on: ring tissue model; assay: Contractile force developed by ring sample during tissue development (matrix remodeling and compression); conditions: Cytochalasin D 2 μM
Description: The contractile force developed by the ring sample during matrix remodeling and compression can be measured by connecting the ring to the force measuring apparatus as described above within about 1-2 hours after collagen gelation. The cells begin to exert a force on the matrix after this time. Then the increase of force during tissue development (remodeling and compression) is observed over time.
Maximum force is typically reached within 15 to 20 hours. This process was also disrupted by several inhibitors as illustrated in FIGS. 18(b)-(d).

[2] = tested on: actin cytoskeletons in mono-layer cell cultures; assay: Confocal microscopy of actin cytoskeletons stained with Rhodamine phalloidin; conditions: CD 2 nM
[3] = tested on: chicken embryo fibroblasts (CEF's) tissue model; assay: Ring system: isometric force and dynamic stiffness of fibroblast populated matrices (FPM); conditions: for contractile force produced in response to serum activation: cytochalasin D 2 μM
Description: Chicken embryo fibroblasts (CEF's) isolated from 11-day chicken embryos (Spafas Inc., Preston, Conn.) were maintained in Dulbecco's modified Eagle's medium (DMEM) supplemented with 10% fetal calf serum (FCS), penicillin at 50 units/ml, and streptomycin at 50 microgram/milliliter. The CEF's used to make tissue models were passaged once or twice from primary cultures. Monomeric collagen solubilized in 0.02 M acetic acid (Upstate Biotechnology Inc., Lake Placid, N.Y.) was neutralized at 4° C. with 0.1 N NaOH and mixed with concentrated DMEM stock to yield a final normal DMEM concentration. The fibroblasts suspended by trypsin (FIG. 1a) were mixed with the collagen solution (FIG. 1b), the cell suspension was poured into Teflon casting wells (FIG. 1c), and the wells were incubated at 37° C. with 5% CO2 (FIG. 1d). The collagen polymerized within 15-30 min and fibroblasts were captured within the hydrated collagen gel. The collagen gel formed a ring (3 mm thick, 3 cm diameter) between the inner wall of the cylindrical well and the central mandrel. While in culture the cells compressed this ring, reducing its volume about 10-fold (thickness 200-300 μm). The ring could then be removed from the mandrel (FIG. 1e and FIG. 1f) and mounted on the measuring instrument (FIG. 1g) as described below.
Mechanical measurements were carried out using a ring system. After two days of incubation (serum starvation for the final 12-16 hours), the mandrel was removed from the casting well and the tissue model-ring was removed gently from the mandrel. As shown in FIG. 1 the tissue model-ring was looped over the triangular hook connected to an isometric force transducer (Model 52-9545, Harvard Apparatus, South Natick, Mass.) by a fine, flexible gold chain. The ring was also looped over a horizontal bar connected to a sliding element moveable vertically and linearly by a stepper motor (P/N 1-19-3400 24V DC 1.8° step size, Haward Industry, St. Louis, Mo.) controlled by a micro-stepping driver (IM483 Intelligent Motion Systems) to measure stress and dynamic modulus of the sample. The micro-stepping driver was controlled by a personal computer with software which enabled the stepper motor to achieve smooth motion. An analog-to-digital signal converter (CIO-DAS1602/16, Computer Boards, Inc., Mansfield, Mass.) attached to the computer translated the voltage signal from the isometric force transducer to a digital signal for recording on a data recorder. The stepper motor controlled the stretching of the tissue. Force exerted by or on the tissue was transmitted to the force transducer by the gold chain.
The tissue sample was submerged in 50 ml Hepes-buffered DMEM (pH 7.4) in a thermo-regulated organ bath (Harvard Apparatus, South Natick, Mass.) maintained at 37° C. The two horizontal bars over which the ring was looped were initially set to hold the ring at its original contour length (corresponding to the circumference of the mandrel).
Typically, for stiffness measurements, the tissue model is subjected to a sequence of stretch cycles. In each cycle the tissue model is slowly stretched from 0 to 20% over 30 minutes and the tissue model is then returned at the same rate to its original length by actuation of the stepper motor. The resulting increase in contractile force during the first stretch is substantially larger than the contractile force in subsequent stretches (FIG. 2a). For each stretch after the first stretch there is a further small decrease in maximum contractile force, but the decrease becomes negligible after sufficient pre-stretching. The tissue models produced contractile force in response to the activation of fibroblasts by serum. This contractile force was abolished by disrupting the actin cytoskeleton with cytochalasin D (2 μM) (FIG. 2b).
The amplitude of the force response divided by the stretching amplitude corresponded to the dynamic stiffness of the sample subjected to a preselected sinusoidal length change. […]

C=C1[C@@H](C)[C@H]2[C@H](Cc3ccccc3)NC(=O)[C@]23[C@H](OC(C)=O)/C=C/[C@@](C)(O)C(=O)[C@@H](C)C/C=C/[C@H]3[C@@H]1O [CD, cytochalasin D]
development of force during ring tissue development [1]: completely abolished
effect on actin cytoskeletons by confocal microscopy [2]: no effect was observed
concentration range over which tension and stiffness decrease [3]: almost three decades
lowest concentration at which force and dynamic stiffness were significantly diminished [3]: 2 nM
dynamic stiffness ([3]; CD 2 μM): nearly reached its minimum value
isometric force ([3]; CD 2 μM): reduced almost to zero
contractile force produced in response to serum activation ([3]; listed as Cytochalasin D): abolition of active contractility
contractile force produced in response to serum activation ([3]; listed as cytochalasin D): abolished
effect on viscosity of the tissues (phase angle δ) ([3]; data not shown): relatively minor effect
IC50 ([3]; two day-old tissue models, serum starved 16 hours, serial additions, read-out: concentration needed to reduce the force and dynamic stiffness by 50%): ~250 nM
